Broadly, the inhibition is the change of the read-out against control, counted positive when it falls. Usually IC50 stands for the midpoint of a concentration-inhibition curve.

The target in test [1] is T1, Gamma-secretase (Homo sapiens) (UniProt Q96BI3+Q9NZ42+Q8WW43+P49768+Q92542+P49810). In words: Selectivity ratio of IC50 for modulation of gamma-secretase (unknown origin) assessed as inhibition of amyloid beta 40 production to IC50 for modulation of gamma-secretase (unknown origin) assessed as inhibition of amyloid beta 42 production. The format is protein-complex assay.

The target of test [2] is T1, Gamma-secretase (Homo sapiens). The test can be described thus: Modulation of gamma-secretase (unknown origin) assessed as inhibition of amyloid beta 40 production at 4 uM relative to control. The format is protein-complex assay.
Test [3] addresses Gamma-secretase. The test can be described thus: Modulation of gamma-secretase (unknown origin) assessed as inhibition of amyloid beta 42 production. The format is protein-complex assay, Homo sapiens.
The target of test [4] is Gamma-secretase. The test can be described thus: Modulation of gamma-secretase (unknown origin) expressed in CHO cells assessed as inhibition of amyloid beta 42 production. In kind it is cell-based, Homo sapiens.
Test [5] has as its target Gamma-secretase. The test can be described thus: Modulation of gamma-secretase (unknown origin) expressed in CHO cells assessed as inhibition of amyloid beta 40 production. In kind it is cell-based, Homo sapiens.
Test [6] concerns the target Gamma-secretase. In words: Modulation of gamma-secretase (unknown origin) assessed as inhibition of amyloid beta 40 production. The format is protein-complex assay, Homo sapiens.

As to `CC(=O)O[C@@H]([C@@H]1C[C@@H](C)[C@H]2[C@H](O1)[C@H](O)[C@@]1(C)[C@@H]3CC[C@H]4C(C)(C)[C@@H](OC(=O)NCCN(C)C)CC[C@@]45C[C@@]35CC[C@]21C)C(C)(C)O`, the Ratio IC50 in test [1] was above 11. For the same molecule, the inhibition in test [2] turned out to be 23%. Also, the IC50 in test [3] was determined as 360 nM.

As for `CC(=O)O[C@@H]([C@@H]1C[C@@H](C)C2=C(O1)[C@H](O)[C@@]1(C)[C@@H]3CC[C@H]4C(C)(C)[C@@H](O[C@@H]5OC[C@@H](O)[C@H](O)[C@H]5O)CC[C@@]45C[C@@]35CC[C@]21C)C(C)(C)O`, the IC50 in test [4] is 100 nM; in test [5], 6300 nM; in test [3], 100 nM; in test [6] it was 2700 nM.

The values are drawn from ChEMBL document CHEMBL3217610, “SAR investigations on a novel class of gamma-secretase modulators based on a unique scaffold” (Medchemcomm, 2013).
